For 20 compounds, inhibition results are on record in patent publication US8680159B2, “Bradykinin 1 receptor modulating compounds” (Gruenenthal GmbH, priority 2010, dated 2014).

Read-outs that look alike come from different tables or passages of the source.

Assay [1] has as its target T1, B1R receptor of the rat (CHO K1 cells stably transfected with the B1R gene of the rat) (Rattus norvegicus, UniProt P97583).
T1 construct: expressed in transfected cells; host or cells: CHO K1 cells (Chinese hamster ovary), stably transfected
T1 sequence (P97583 1-337): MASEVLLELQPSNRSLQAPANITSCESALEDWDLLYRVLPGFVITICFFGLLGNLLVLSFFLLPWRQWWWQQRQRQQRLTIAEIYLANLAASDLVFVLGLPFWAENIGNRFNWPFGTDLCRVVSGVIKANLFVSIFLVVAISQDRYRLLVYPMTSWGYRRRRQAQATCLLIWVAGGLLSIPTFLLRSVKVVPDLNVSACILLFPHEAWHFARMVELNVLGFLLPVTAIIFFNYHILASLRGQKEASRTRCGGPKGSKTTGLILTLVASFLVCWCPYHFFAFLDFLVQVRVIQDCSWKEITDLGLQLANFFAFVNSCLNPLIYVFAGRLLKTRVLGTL
Briefly: Functional study on the bradykinin receptor 1 (B1R), Ca2+ fluorescence (Fluo-4) FLIPR/Novostar assay, rB1R cells. The settings on record: CHO-K1, 10 μM. In kind it is cell-based. The method in brief:
(§1)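 Ca2+ influx (Fluo-4, peak fluorescence, λex 488/λem 540 nm) was measured in CHO K1 lines expressing rat or human B1R. After a 10 μM test-compound pre-addition scoring % activation, cells received EC80 agonist: Des-Arg9-bradykinin for rat, Lys-Des-Arg9-bradykinin for human. Antagonism was expressed as % of maximum inhibition, with IC50 from varied concentrations.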

Assay [2] deals with T2, human B1R receptor (CHO K1 cells stably transfected with the human B1R gene) (Homo sapiens, UniProt P46663).
T2 construct: expressed in transfected cells; host or cells: CHO K1 cells (Chinese hamster ovary), stably transfected
T2 sequence (P46663 1-353): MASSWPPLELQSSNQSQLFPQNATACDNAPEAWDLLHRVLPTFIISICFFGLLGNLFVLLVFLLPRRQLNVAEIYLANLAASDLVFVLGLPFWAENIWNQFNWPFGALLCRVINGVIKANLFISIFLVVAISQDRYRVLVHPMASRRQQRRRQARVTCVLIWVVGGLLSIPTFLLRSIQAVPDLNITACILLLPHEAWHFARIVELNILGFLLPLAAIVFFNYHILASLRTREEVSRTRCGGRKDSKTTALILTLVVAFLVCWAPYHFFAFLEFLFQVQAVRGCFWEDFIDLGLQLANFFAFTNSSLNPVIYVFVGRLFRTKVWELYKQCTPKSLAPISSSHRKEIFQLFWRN
Description: Functional study on the bradykinin receptor 1 (B1R), Ca2+ fluorescence (Fluo-4) FLIPR/Novostar assay, hB1R cells. The format is cell-based. An outline of the steps: as §1

Setting [3] is: read-out: % inhibition (rat B1R) at 10 μM.
The mark [4] stands for this setting: CHO-K1, read-out: % inhibition (human B1R) at 10 μM.
Where [5] appears, read: read-out: % Inhibition (r-B1R) at 10 μM.
Setting [6] is: CHO-K1, read-out: % Inhibition (h-B1R) at 10 μM.

Regarding `Cc1cc(N2CCC(N(C)C(=O)c3ccc4c(c3)[C@H](N3Cc5cccc(Cl)c5C3=O)CC4)CC2)nc(C)n1` [Example H-130, (3R)-3-(4-Chloro-3-oxo-1,2-dihydro-isoindol-2-yl)-N-[1-(2,6-dimethyl-pyrimidin-4-yl)-piperidin-4-yl]-N-methyl-2,3-dihydro-1H-indene-5-carboxylic acid amide], the inhibition at 10 µM in assay [1] (setting [3]) worked out at 101%; in assay [2] (setting [4]), 99%.

In the case of `CN(C(=O)c1ccc2c(c1)[C@H](NC(=O)c1ccccc1)CC2)C1CCN(c2ccncc2)CC1` [Example H-71, (3R)-3-Benzoylamino-N-methyl-N-(1-pyridin-4-yl-piperidin-4-yl)-2,3-dihydro-1H-indene-5-carboxylic acid amide], the inhibition at 10 µM in assay [1] (setting [3]) was 99%; in assay [2] (setting [4]), 100%.

In the case of `CCN(C(=O)c1ccccc1C)[C@@H]1CCc2ccc(C(=O)N(C)C3CCN(c4cc(C)nc(C)n4)CC3)cc21` [Example H-170, (3R)-N-[1-(2,6-Dimethyl-pyrimidin-4-yl)-piperidin-4-yl]-3-[ethyl-(2-methyl-benzoyl)-amino]-N-methyl-2,3-dihydro-1H-indene-5-carboxylic acid amide], the inhibition at 10 µM in assay [1] (setting [3]) came to 106%; in assay [2] (setting [4]), 100%.

Regarding `Cc1cc(N2CCC(N(C)C(=O)c3ccc4c(c3)[C@H](NC(=O)c3ccccc3Cl)CC4)CC2)nc(C)n1` [Example H-59, (3R)-3-[(2-Chloro-benzoyl)amino]-N-[1-(2,6-dimethyl-pyrimidin-4-yl)-piperidin-4-yl]-N-methyl-2,3-dihydro-1H-indene-5-carboxylic acid amide], the inhibition at 10 µM in assay [1] (setting [3]) was found to be 103%; in assay [2] (setting [4]), 99%.

`CN(C(=O)c1ccc2c(c1)[C@H](N(C)C(=O)c1ccccc1Cl)CC2)C1CCN(c2ccncn2)CC1` [Example H-148, (3R)-3-[(2-Chloro-benzoyl)-methyl-amino]-N-methyl-N-(1-pyrimidin-4-yl-piperidin-4-yl)-2,3-dihydro-1H-indene-5-carboxylic acid amide]: the inhibition at 10 µM in assay [1] (setting [3]) turned out to be 99%; in assay [2] (setting [4]), 89%.

As to `COc1ccc(N2CCC(N(C)C(=O)c3ccc4c(c3)[C@H](NC(=O)c3ccccc3Cl)CC4)CC2)cn1` [Example H-101, (3R)-3-[(2-Chloro-benzoyl)amino]-N-[1-(6-methoxy-pyridin-3-yl)-piperidin-4-yl]-N-methyl-2,3-dihydro-1H-indene-5-carboxylic acid amide], the inhibition at 10 µM in assay [1] (setting [3]) was 95%; in assay [2] (setting [4]), 13%.

As to `CN(C(=O)c1ccc2c(c1)[C@H](NC(=O)c1ccccc1Cl)CC2)C1CCN(Cc2ccnc(N3CCCC3)c2)CC1` [Example H-48, (3R)-3-[(2-Chloro-benzoyl)amino]-N-methyl-N-[1-[(2-pyrrolidin-1-yl-pyridin-4-yl)-methyl]-piperidin-4-yl]-2,3-dihydro-1H-indene-5-carboxylic acid amide], the inhibition at 10 µM in assay [1] (setting [3]) worked out at 75%; in assay [2] (setting [4]) it was 11%.

Turning to `CN(CC1CCN(c2ccncn2)CC1)C(=O)c1ccc2c(c1)[C@H](NC(=O)c1ccccc1Cl)CC2` [Example H-136, (3R)-3-[(2-Chloro-benzoyl)amino]-N-methy-N-[(1-pyrimidin-4-yl-piperidin-4-yl)-methyl]-2,3-dihydro-1H-indene-5-carboxylic acid amide], the values for the inhibition at 10 µM in assay [1] (setting [3]) and in assay [2] (setting [4]) were 107% and 41%, respectively.

For `Cc1nsc(N2CCC(N(C)C(=O)c3ccc4c(c3)[C@H](NC(=O)c3ccccc3Cl)CC4)CC2)n1` [Example H-125, (3R)-3-[(2-Chloro-benzoyl)amino]-N-methyl-N-[1-(3-methyl-[1,2,4]thiadiazol-5-yl)-piperidin-4-yl]-2,3-dihydro-1H-indene-5-carboxylic acid amide], the inhibition at 10 µM in assay [1] (setting [3]) stood at 104%; in assay [2] (setting [4]), 70%.

On to `CN(C(=O)c1ccc2c(c1)[C@H](NC(=O)c1ccccc1Cl)CC2)C1CCN(c2ccncc2)CC1` [Example H-06, (3R)-3-[(2-Chloro-benzoyl)amino]-N-methyl-N-(1-pyridin-4-yl-piperidin-4-yl)-2,3-dihydro-1H-indene-5-carboxylic acid amide], for which the inhibition at 10 µM was found to be 102% in assay [1] (setting [3]) and 100% in assay [2] (setting [4]).

For `CN(C(=O)c1ccc2c(c1)[C@H](NC(=O)c1ccccc1Cl)CC2)C1CCN(c2ccc(F)cc2)CC1` [Example H-78, (3R)-3-[(2-Chloro-benzoyl)amino]-N-[1-(4-fluorophenyl)-pipendin-4-yl]-N-methyl-2,3-dihydro-1H-indene-5-carboxylic acid amide], the inhibition at 10 µM was 85% in assay [1] (setting [3]) and 31% in assay [2] (setting [4]).

For the compound `CN(C(=O)c1ccc2c(c1)[C@H](NC(=O)C1CCc3ccccc31)CC2)C1CCN(c2ccncc2)CC1` (stereo partly drawn) [Example H-82, (3R)-3-(2,3-Dihydro-1H-inden-1-carbonylamino)-N-methyl-N-(1-pyridin-4-yl-piperidin-4-yl)-2,3-dihydro-1H-indene-5-carboxylic acid amide], the inhibition at 10 µM came to 112% in assay [1] (setting [3]) and 100% in assay [2] (setting [4]).

Regarding `CN(C(=O)c1ccc2c(c1)C(N(C)S(=O)(=O)Cc1ccccc1C(F)(F)F)CC2)C1CCN(c2ccncc2)CC1` (stereo not shown) [CC_H-46, N-Methyl-3-[methyl-[[2-(trifluoromethyl)-phenyl]-methylsulfonyl]-amino]-N-(1-pyridin-4-yl-piperidin-4-yl)-2,3-dihydro-1H-indene-5-carboxylic acid amide], the inhibition at 10 µM in assay [1] (setting [5]) stood at 104%; in assay [2] (setting [6]), 99%.

As for `O=C(NCCC1CCN(c2ccncc2)CC1)c1ccc2c(c1)C(NS(=O)(=O)c1c(Cl)cccc1C(F)(F)F)CC2` (stereo not shown) [CC_H-50, 3-[[[2-Chloro-6-(trifluoromethyl)-phenyl]sulfonyl]amino]-N-[2-(1-pyridin-4-yl-piperidin-4-yl)-ethyl]-2,3-dihydro-1H-indene-5-carboxylic acid amide], the inhibition at 10 µM in assay [1] (setting [5]) is 101%; in assay [2] (setting [6]) it was 100%.

Regarding `Cc1cc(N2CCC(N(C)C(=O)c3ccc4c(c3)[C@H](NC(=O)c3cc(C)on3)CC4)CC2)ccn1` [Example H-95, 5-Methyl-N-[(1R)-6-[methyl-[1-(2 methyl-pyridin-4-yl)-piperidin-4-yl]-carbamoyl]-2,3-dihydro-1H-inden-1-yl]-isoxazole-3-carboxylic acid amide], the inhibition at 10 µM was 104% in assay [1] (setting [3]) and 100% in assay [2] (setting [4]).

Take `Cc1cc(N2CCC(N(C)C(=O)c3cc4c(cc3F)[C@H](N3Cc5cccc(Cl)c5C3=O)CC4)CC2)nc(C)n1` [Example H-142, (1R)-1-(4-Chloro-3-oxo-1,2-dihydro-isoindol-2-yl)-N-[1-(2,6-dimethyl-pyrimidin-4-yl)-piperidin-4-yl]-6-fluoro-N-methyl-2,3-dihydro-1H-indene-5-carboxylic acid amide]: the inhibition at 10 µM was 98% in assay [1] (setting [3]) and 99% in assay [2] (setting [4]).

On to `CN(C(=O)c1ccc2c(c1)[C@H](NC(=O)c1ccccc1Cl)CCO2)C1CCN(c2ccncc2)CC1` [Example H-20, (4R)-4-[(2-Chloro-benzoyl)amino]-N-methyl-N-(1-pyridin-4-yl-piperidin-4-yl)-3,4-dihydro-2H-chromene-6-carboxylic acid amide], for which the inhibition at 10 µM was 103% in assay [1] (setting [3]) and 100% in assay [2] (setting [4]).

With `Cc1cc(N2CCC(N(C)C(=O)c3ccc4c(c3)[C@H](NC(=O)c3cccnc3C(F)(F)F)CC4)CC2)ccn1` [Example H-92, N-[(1R)-6-[Methyl-[1-(2-methyl-pyridin-4-yl)-piperidin-4-yl]-carbamoyl]-2,3-dihydro-1H-inden-1-yl]-2-(trifluoromethyl)-pyridine-3-carboxylic acid amide], the inhibition at 10 µM in assay [1] (setting [3]) came out at 106%; in assay [2] (setting [4]), 100%.

Take `CN(C(=O)c1ccc2c(c1)C(NC(=O)c1cncnc1)CC2(C)C)C1CCN(c2ccncc2)CC1` (stereo not shown) [CC_H-22, N-[3,3-Dimethyl-6-[methyl-(1-pyridin-4-yl-piperidin-4-yl)-carbamoyl]-1,2-dihydro-inden-1-yl]-pyrimidine-5-carboxylic acid amide]: the values for the inhibition at 10 µM in assay [1] (setting [5]) and in assay [2] (setting [6]) were 90% and 97%, respectively.

Turning to `CN(C(=O)c1ccc2c(c1)C(NC(=O)c1cncnc1)CC2)C1CCN(c2ccncc2)CC1` (stereo not shown) [CC_H-48, N-[6-[Methyl-(1-pyridin-4-yl-piperidin-4-yl)-carbamoyl]-2,3-dihydro-1H-inden-1-yl]-pyrimidine-5-carboxylic acid amide], the values for the inhibition at 10 µM in assay [1] (setting [5]) and in assay [2] (setting [6]) were 78% and 96%, respectively.

A word on the inhibition: it is the relative decrease from the control value, in per cent.
